Source: article PMC9378659, “Design and synthesis of new N-thioacylated ciprofloxacin derivatives as urease inhibitors with potential antibacterial activity” (Scientific Reports, 2022)
Values after ≈ are worked out from the molar mass of the structure shown. Read-outs that look alike come from different tables or passages of the source.

Legend:
[1] = target: T1, jack bean urease (JBU; EC 3.5.1.5) (Canavalia ensiformis, UniProt P07374); assay: biochemical; conditions: JB urease, mean ± SEM, at least three experiments
T1 construct: purchased Sigma-Aldrich
T1 sequence (P07374 whole entry, looked up): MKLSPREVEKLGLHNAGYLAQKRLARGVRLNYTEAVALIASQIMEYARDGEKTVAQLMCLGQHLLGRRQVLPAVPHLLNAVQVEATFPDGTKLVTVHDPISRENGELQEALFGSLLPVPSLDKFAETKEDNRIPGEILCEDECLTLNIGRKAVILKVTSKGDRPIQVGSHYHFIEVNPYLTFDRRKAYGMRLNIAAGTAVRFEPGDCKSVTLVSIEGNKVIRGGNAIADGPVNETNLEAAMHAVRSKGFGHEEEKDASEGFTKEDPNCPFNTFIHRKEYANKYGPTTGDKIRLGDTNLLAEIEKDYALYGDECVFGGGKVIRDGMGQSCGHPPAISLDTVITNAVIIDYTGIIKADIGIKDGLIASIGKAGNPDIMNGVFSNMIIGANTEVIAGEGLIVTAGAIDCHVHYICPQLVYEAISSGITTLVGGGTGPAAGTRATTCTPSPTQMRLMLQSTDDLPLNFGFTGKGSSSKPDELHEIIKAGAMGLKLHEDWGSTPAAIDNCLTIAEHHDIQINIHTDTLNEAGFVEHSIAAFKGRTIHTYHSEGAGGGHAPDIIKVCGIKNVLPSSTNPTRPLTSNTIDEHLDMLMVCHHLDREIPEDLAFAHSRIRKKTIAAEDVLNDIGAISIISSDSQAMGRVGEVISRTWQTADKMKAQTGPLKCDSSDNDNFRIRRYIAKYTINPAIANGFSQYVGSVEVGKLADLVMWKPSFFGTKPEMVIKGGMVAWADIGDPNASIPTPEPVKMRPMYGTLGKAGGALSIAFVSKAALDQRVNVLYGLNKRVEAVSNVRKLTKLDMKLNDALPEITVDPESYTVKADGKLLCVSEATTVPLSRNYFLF
Description: All chemicals and jack bean urease (JBU; EC 3.5.1.5) were purchased from Sigma-Aldrich. The urease inhibitory activity of N-thioacylated ciprofloxacin derivatives 3a–n was determined by Berthelot colorimetric method. The ammonia (NH3) produced by the urease enzyme along with indicator solutions including hypochlorite (OCl^−) and phenol make a blue-colored indophenol complex and the absorbance was measured at 625 nm by a Synergy H1 Hybrid multimode microplate reader (BioTek, Winooski, VT, USA).
Assay completed in two steps, at the first step the enzyme cocktail for each compound consisted of 50 µl urease enzyme (3 mg/ml in phosphate buffer, pH 7.4), 100 µl of test compound at different concentrations (0–10 mg/ml, in phosphate buffer, pH 7.4) and 850 µl urea solution (30 mM, in phosphate buffer, pH 7.4). This mixture was incubated at 37 °C for 30 min.
For the second step, each 100 µl of the above mixture was added to 500 µl of indicator solutions A (0.5 g phenol and 25 mg sodium nitroprusside in 500 ml distilled water) and 500 µl of B (2.5 g sodium hydroxide and 4.2 ml sodium hypochlorite (5%) in 500 ml distilled water) and further incubated at 37 °C for 30 min. The absorbance of blue-colored indophenol of each cell is related to the percentage of enzyme inhibition using the following equation: I%=1-T/C×100.
In this equation, I (%) is assigned to the percent of enzyme inhibition. (T) is assigned to the absorbance of our test compounds and C is assigned to the negative control absorbance which is the absorbance of our cocktail without any inhibitor compound. Thiourea and hydroxyurea were used as the positive controls. The IC50 values of test compounds were calculated using GraphPad PRISM 8.0 software (GraphPad, San Diego, CA, USA).

[2] = tested on: Staphylococcus epidermidis ATCC 12228; assay: Antibacterial activity, agar dilution MIC; assay type: cell-based; conditions: ATCC12228, read-out: MIC S. epidermidis
Description: (§1) Antibacterial activity of the synthesized compounds 3a–n were determined according to the agar dilution methods for Gram-positive bacteria strains (Staphylococcus aureus ATCC 6538 and Staphylococcus epidermidis ATCC 12228) and Gram-negative bacteria strains (Escherichia coli ATCC 8739 and Pseudomonas aeruginosa ATCC 9027).
(§2) Two Gram-positive bacteria strains (Staphylococcus aureus ATCC 6538 and Staphylococcus epidermidis ATCC 12228) and two Gram-negative bacteria strains (Escherichia coli ATCC 8739 and Pseudomonas aeruginosa ATCC 9027) were used for evaluation of the synthesized N-thioacylated ciprofloxacin derivatives 3a–n. All the strains were obtained from Iranian Microbial Collection (Pasteur Institute of Iran, Tehran, Iran). The antibacterial activity of the synthesized compounds was determined according to the agar dilution methods of the National Committee for Clinical Laboratory Standards[43].
(§3) Briefly, a series of twofold dilutions of test compounds 3a–n and ciprofloxacin, the standard antibiotic, were dissolved in 1 ml of DMSO. Each concentration was added to molten test agars that have been allowed to equilibrate in a water bath to 55 °C, to attain the concentrations ranging from 100 to 0.003 µg/ml. To compare the MIC values; the standard antibiotic, ciprofloxacin was also diluted in the same manner.
(§4) To prepare the inoculums suspensions, the bacteria were cultured on Muller-Hinton agar 12–16 h before the test. On the day of the experiment, a single colony of each bacteria was suspended Muller–Hinton broth to reach the turbidity of 0.5 McFarland standard (0.08–0.1 absorbance at 600 nm), which is approximately equivalent to 1.5 × 10^8 CFU/ml. The suspensions were then diluted at 1:10 in sterile saline to obtain a concentration of 1.5 × 10^7 CFU/ml. The plates were dot inoculated with 2 ul of each bacterial suspension and incubated at 37 °C overnight. The MIC was also defined as the lowest concentration of test compounds that completely prevents the growth of bacteria on agar plate following overnight incubation.

[3] = tested on: Pseudomonas aeruginosa ATCC 9027; assay: Antibacterial activity, agar dilution MIC; assay type: cell-based; conditions: ATCC9027, read-out: MIC P. aeruginosa
Description: as §1, §2, §3, §4

[4] = tested on: Staphylococcus aureus ATCC 6538; assay: Antibacterial activity, agar dilution MIC; assay type: cell-based; conditions: ATCC6538, read-out: MIC S. aureus
Description: as §1, §2, §3, §4

[5] = tested on: Escherichia coli ATCC 8739; assay: Antibacterial activity, agar dilution MIC; assay type: cell-based; conditions: ATCC8739
Description: as §1, §2, §3, §4

[6] = tested on: clinical isolate of P. vulgaris; assay: Anti-ureolytic assay, colorimetric microdilution in urea broth; assay type: cell-based; conditions: Proteus vulgaris
Description: (§5) The colorimetric microdilution technique using urea broth media (Merck, supplemented with glucose; pH 6 for C. neoformans) was used to determine the ureolytic activity of C. neoformans (H99), and clinical isolate of P. vulgaris treated with 3n according to previously reported procedures[18],[37].

C. neoformans (H99) = assay: as above; assay type: cell-based; conditions: Cryptococcus neoformans, urea broth pH 6
Description: as §5

jack bean urease = tested on: jack bean urease; parameters: method as in PMID 28574649; conditions: read-out: IC50 against urease; cited from earlier work
urease = tested on: urease; parameters: method as in PMID 34179623; conditions: read-out: IC50 against urease; cited from earlier work
[7] = IC50 urease inhibitory activity
[8] = read-out: IC50 urease inhibitory activity

SMILES | IC50 [1, 7] [µM] | melting point [°C] | MIC [2] [µg/mL] | MIC [3] [µg/mL] | MIC [4] [µg/mL] | MIC [5] [µg/mL] | IC50 [6] [µg/mL] | IC50 (C. neoformans (H99)) [µg/mL] | IC50 (jack bean urease) [µM] | IC50 [1, 8] [µM] | IC50 (urease) [µM]
O=C(O)c1cn(C2CC2)c2cc(N3CCN(C(=S)c4ccccc4)CC3)c(F)cc2c1=O [Compound 3a, 1-Cyclopropyl-6-fluoro-4-oxo-7-(4-(phenylcarbonothioyl)piperazin-1-yl)-1,4 dihydroquinoline-3-carboxylic acid] | 10.61 ± 0.09 | > 250 | 0.024 (≈ 0.0532 µM) | 6.25 (≈ 13.8 µM) | 0.048 (≈ 0.106 µM) | 0.048 (≈ 0.106 µM) | – | – | – | – | –
O=C(O)c1cn(C2CC2)c2cc(N3CCN(C(=S)c4ccc([N+](=O)[O-])cc4)CC3)c(F)cc2c1=O [Compound 3n, 1-Cyclopropyl-6-fluoro-7-(4-(4-nitrophenylcarbonothioyl)piperazin-1-yl)-4-oxo-1,4-dihydroquinoline-3-carboxylic acid] | 2.05 ± 0.03 | – | 0.39 (≈ 0.785 µM) | 1.56 (≈ 3.15 µM) | 0.781 (≈ 1.57 µM) | 0.097 (≈ 0.195 µM) | 5.72 ± 1.31 (≈ 11.5 µM) | 5.59 ± 2.38 (≈ 11.3 µM) | – | – | –
COc1cccc(C(=S)N2CCN(c3cc4c(cc3F)c(=O)c(C(=O)O)cn4C3CC3)CC2)c1 [Compound 3b, 1-Cyclopropyl-6-fluoro-7-(4-(3-methoxyphenylcarbonothioyl)piperazin-1-yl)-4-oxo-1,4-dihydroquinoline-3-carboxylic acid] | 17.02 ± 0.16 | > 250 | 0.024 (≈ 0.0498 µM) | 3.12 (≈ 6.49 µM) | 0.048 (≈ 0.0997 µM) | 0.097 (≈ 0.201 µM) | – | – | – | – | –
O=C(O)c1cn(C2CC2)c2cc(N3CCN(C(=S)c4cccc(F)c4)CC3)c(F)cc2c1=O [Compound 3h, 1-Cyclopropyl-6-fluoro-7-(4-(3-fluorophenylcarbonothioyl)piperazin-1-yl)-4-oxo-1,4-dihydroquinoline-3-carboxylic acid] | 4.08 ± 0.03 | – | 0.097 (≈ 0.207 µM) | 0.048 (≈ 0.102 µM) | 0.048 (≈ 0.102 µM) | < 0.003 | – | – | – | – | –
COc1ccc(C(=S)N2CCN(c3cc4c(cc3F)c(=O)c(C(=O)O)cn4C3CC3)CC2)cc1 [Compound 3f, 1-Cyclopropyl-6-fluoro-7-(4-(4-methoxyphenylcarbonothioyl)piperazin-1-yl)-4-oxo-1,4-dihydroquinoline-3-carboxylic acid] | 21.36 ± 0.08 | > 250 | 0.024 (≈ 0.0498 µM) | 3.12 (≈ 6.49 µM) | 0.024 (≈ 0.0498 µM) | 0.097 (≈ 0.201 µM) | – | – | – | – | –
O=C(O)c1cn(C2CC2)c2cc(N3CCN(C(=S)c4cccc(Oc5ccccc5)c4)CC3)c(F)cc2c1=O [Compound 3k, 1-Cyclopropyl-6-fluoro-4-oxo-7-(4-(3-phenoxyphenylcarbonothioyl)piperazin-1-yl)-1,4-dihydroquinoline-3-carboxylic acid] | 32.49 ± 0.32 | > 250 | 0.39 (≈ 0.717 µM) | 3.12 (≈ 5.75 µM) | 0.39 (≈ 0.717 µM) | 0.097 (≈ 0.178 µM) | – | – | – | – | –
O=C(O)c1cn(C2CC2)c2cc(N3CCN(C(=S)c4ccccc4F)CC3)c(F)cc2c1=O [Compound 3i, 1-Cyclopropyl-6-fluoro-7-(4-(2-fluorophenylcarbonothioyl)piperazin-1-yl)-4-oxo-1,4-dihydroquinoline-3-carboxylic acid] | 15 ± 0.16 | > 250 | 0.024 (≈ 0.0511 µM) | 2.5 (≈ 5.32 µM) | 0.024 (≈ 0.0511 µM) | 0.0195 (≈ 0.0415 µM) | – | – | – | – | –
O=C(O)c1cn(C2CC2)c2cc(N3CCN(C(=S)c4cccc(O)c4)CC3)c(F)cc2c1=O [Compound 3j, 1-Cyclopropyl-6-fluoro-7-(4-(3-hydroxyphenylcarbonothioyl)piperazin-1-yl)-4-oxo-1,4-dihydroquinoline-3-carboxylic acid] | 19.6 ± 0.17 | > 250 | 0.048 (≈ 0.103 µM) | 0.781 (≈ 1.67 µM) | 0.097 (≈ 0.207 µM) | 0.024 (≈ 0.0513 µM) | – | – | – | – | –
Cc1ccc(C(=S)N2CCN(c3cc4c(cc3F)c(=O)c(C(=O)O)cn4C3CC3)CC2)cc1 [Compound 3c, 1-Cyclopropyl-6-fluoro-7-(4-(4-methylphenylcarbonothioyl)piperazin-1-yl)-4-oxo-1,4-dihydroquinoline-3-carboxylic acid] | 20.63 ± 0.19 | > 250 | 0.024 (≈ 0.0516 µM) | 3.12 (≈ 6.71 µM) | 0.048 (≈ 0.103 µM) | 0.097 (≈ 0.208 µM) | – | – | – | – | –
O=C(O)c1cn(C2CC2)c2cc(N3CCN(C(=S)c4ccc(Br)cc4)CC3)c(F)cc2c1=O [Compound 3l, 7-(4-(4-Bromophenylcarbonothioyl)piperazin-1-yl)-1-cyclopropyl-6-fluoro-4-oxo-1,4-dihydroquinoline-3-carboxylic acid] | 8.21 ± 0.06 | > 250 | 0.048 (≈ 0.0905 µM) | 0.848 (≈ 1.6 µM) | 0.048 (≈ 0.0905 µM) | 0.028 (≈ 0.0528 µM) | – | – | – | – | –
O=C(O)c1cn(C2CC2)c2cc(N3CCN(C(=S)c4ccc(Cl)cc4)CC3)c(F)cc2c1=O [Compound 3e, 7-(4-(4-Chlorophenylcarbonothioyl)piperazin-1-yl)-1-cyclopropyl-6-fluoro-4-oxo-1,4-dihydroquinoline-3-carboxylic acid] | 6.55 ± 0.05 | > 250 | 0.048 (≈ 0.0988 µM) | 0.781 (≈ 1.61 µM) | 0.048 (≈ 0.0988 µM) | 0.024 (≈ 0.0494 µM) | – | – | – | – | –
NC(=S)N1N=C(c2cc3ccccc3oc2=O)CC1c1ccccc1 (centres unmarked) [Compound D] | – | – | – | – | – | – | – | – | 0.000358 ± 1.7e-05 | – | –
O=C(O)c1cn(C2CC2)c2cc(N3CCN(C(=S)c4cccc([N+](=O)[O-])c4)CC3)c(F)cc2c1=O [Compound 3g, 1-Cyclopropyl-6-fluoro-7-(4-(3-nitrophenylcarbonothioyl)piperazin-1-yl)-4-oxo-1,4-dihydroquinoline-3-carboxylic acid] | 5.87 ± 0.07 | – | 0.024 (≈ 0.0483 µM) | 0.39 (≈ 0.785 µM) | 0.024 (≈ 0.0483 µM) | 0.012 (≈ 0.0242 µM) | – | – | – | – | –
NC(N)=S [Thiourea] | – | – | – | – | – | – | – | – | 4.72 ± 0.174 | 23 ± 0.84 | 21.7 ± 0.34
O=C(O)c1cn(C2CC2)c2cc(N3CCN(C(=S)c4cccc(Cl)c4)CC3)c(F)cc2c1=O [Compound 3m, 7-(4-(3-Chlorophenylcarbonothioyl)piperazin-1-yl)-1-cyclopropyl-6-fluoro-4-oxo-1,4-dihydroquinoline-3-carboxylic acid] | 12.2 ± 0.24 | > 250 | 0.097 (≈ 0.2 µM) | 6.25 (≈ 12.9 µM) | 0.048 (≈ 0.0988 µM) | 0.048 (≈ 0.0988 µM) | – | – | – | – | –
O=C(O)c1cn(C2CC2)c2cc(N3CCNCC3)c(F)cc2c1=O [Ciprofloxacin] | – | – | 0.048 (≈ 0.145 µM) | 0.048 (≈ 0.145 µM) | 0.024 (≈ 0.0724 µM) | < 0.003 | – | – | – | – | –
O=C(O)c1cn(C2CC2)c2cc(N3CCN(C(=S)c4ccc(F)cc4)CC3)c(F)cc2c1=O [Compound 3d, 1-Cyclopropyl-6-fluoro-7-(4-(4-fluorophenylcarbonothioyl)piperazin-1-yl)-4-oxo-1,4-dihydroquinoline-3-carboxylic acid] | 2.94 ± 0.04 | > 250 | 0.048 (≈ 0.102 µM) | 0.781 (≈ 1.66 µM) | 0.097 (≈ 0.207 µM) | 0.097 (≈ 0.207 µM) | – | – | – | – | –
NC(=O)NO [Hydroxyurea, reference compound] | – | – | – | – | – | – | – | – | – | 100 ± 2.5 | –
